Results: US12130255B2, “High-throughput label-free enzymatic bioassays using DESI-MS” (priority 2020, dated 2024)

Legend:
[1] = biological target: T1, acetylcholinesterase (AChE) (Homo sapiens, UniProt P22303); assay: DESI-MS label-free acetylcholinesterase inhibition assay, dose-response curves; assay type: biochemical
[2] = biological target: T1, acetylcholinesterase (AChE); assay: DESI-MS AChE inhibition, Dixon plot (inhibitor and substrate concentrations varied); assay type: biochemical
Method: For kinetic determinations the reactions were incubated for 50 minutes, with the concentration of substrate held kept between 0.4 to 1 mM, while the concentration of enzyme was set to 180 ng/mL. Note that only concentrations within the calibration range were used. The calibrated result (inset) is used to determine v0 of the reaction. The data shown come from eight instrumental replicates from a single mixture (128 spots), acquired in less than 2.5 minutes.
Further characterization of the inhibitors was achieved by screening simultaneously different concentrations of inhibitor and the substrate in order to obtain the Dixon plot (FIG. 11). […] This Dixon plot required that 24 independent progress curves be determined: duplicate measurements taken on 12 combinations of concentrations of inhibitor (0, 40, 100, 200 nM) and substrate (0.6, 0.8, 1.0 mM). This required the analysis of 3072 spots, carried out in approx. 35 minutes, with simultaneous incubation time of 50 minutes.

T1 sequence (P22303 32-614, species assumed): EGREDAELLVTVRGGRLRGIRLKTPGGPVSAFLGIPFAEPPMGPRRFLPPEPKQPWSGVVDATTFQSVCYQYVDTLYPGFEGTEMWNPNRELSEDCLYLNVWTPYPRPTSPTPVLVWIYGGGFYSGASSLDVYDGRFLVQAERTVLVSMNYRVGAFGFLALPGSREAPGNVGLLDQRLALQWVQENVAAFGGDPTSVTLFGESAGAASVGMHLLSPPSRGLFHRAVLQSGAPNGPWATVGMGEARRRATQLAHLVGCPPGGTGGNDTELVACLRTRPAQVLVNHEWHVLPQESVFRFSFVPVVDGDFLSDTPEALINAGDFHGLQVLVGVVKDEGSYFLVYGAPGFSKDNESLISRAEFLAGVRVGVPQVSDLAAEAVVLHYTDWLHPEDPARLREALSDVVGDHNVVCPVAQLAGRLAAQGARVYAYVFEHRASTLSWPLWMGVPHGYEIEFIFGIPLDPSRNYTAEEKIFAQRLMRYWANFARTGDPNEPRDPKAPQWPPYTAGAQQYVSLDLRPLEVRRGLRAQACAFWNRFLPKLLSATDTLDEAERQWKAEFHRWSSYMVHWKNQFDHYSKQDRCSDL

Compound | IC50 [1] [µM] | type of inhibition (intersection of the lines in the Dixon plot) [2]
COc1ccc2c3c1O[C@H]1C(=O)CC[C@H]4[C@@H](C2)N(C)CC[C@]314 [hydrocodone] | 116 | –
CN(C)C(=O)Oc1cccc([N+](C)(C)C)c1 [neostigmine] | – | competitive inhibitor
COc1ccc2c3c1O[C@H]1C(=O)CC[C@@]4(O)[C@@H](C2)N(C)CC[C@]314 [oxycodone] | 0.122 | –
